Results reported in patent publication US7074789B2, “Kinase inhibitors” (Amgen Inc., priority 1999, dated 2006).
Like-named read-outs stand apart in the source and are kept apart here.

Columns and labels:
Assay type in all cases: biochemical
Kdr = target: T1, Kdr (Homo sapiens, UniProt P35968); experiment: Kinase inhibition assay (33P transfer), Kdr; conditions: read-out: KDR-1
T1 construct: Kinases are expressed as either kinase domains or full length constructs; made in house
Text: (§1) The inhibitor compounds described herein are screened in the following manner. Kinases suitable for use in the following protocol to determine kinase activity of the compounds described herein include, -but are not limited to: Lck, Lyn, Src, Fyn, Syk, Zap-70, Itk, Tec, Btk, EGFR, ErbB2, Kdr, Flt-1, Flt-3, Tek, c-Met, InsR, and AKT.
(§2) Kinases are expressed as either kinase domains or full length constructs fused to glutathione S-transferase (GST) or polyHistidine tagged fusion proteins in either E. colior Baculovirus-High Five expression systems. […] In some instances, kinases are co-expressed or mixed with purified or partially purified regulatory polypeptides prior to measurement of activity.
(§3) Briefly, The transfer of ^33PO4 from ATP to the synthetic substrates poly(Glu, Tyr) 4:1 or poly(Arg, Ser) 3:1 attached to the bioactive surface of microtiter plates serves as the basis to evaluate enzyme activity. After an incubation period, the amount of phosphate transferred is measured by first washing the plate with 0.5% phosphoric acid, adding liquid scintillant, and then counting in a liquid scintillation detector.

c-Met = target: T2, c-Met (Homo sapiens, UniProt P08581); experiment: Kinase inhibition assay (33P transfer), c-Met; conditions: Table 2, kinase inhibition class; read-out: Met-1
T2 construct: Kinases are expressed as either kinase domains or full length constructs; made in house
T2 sequence (P08581 25-1390): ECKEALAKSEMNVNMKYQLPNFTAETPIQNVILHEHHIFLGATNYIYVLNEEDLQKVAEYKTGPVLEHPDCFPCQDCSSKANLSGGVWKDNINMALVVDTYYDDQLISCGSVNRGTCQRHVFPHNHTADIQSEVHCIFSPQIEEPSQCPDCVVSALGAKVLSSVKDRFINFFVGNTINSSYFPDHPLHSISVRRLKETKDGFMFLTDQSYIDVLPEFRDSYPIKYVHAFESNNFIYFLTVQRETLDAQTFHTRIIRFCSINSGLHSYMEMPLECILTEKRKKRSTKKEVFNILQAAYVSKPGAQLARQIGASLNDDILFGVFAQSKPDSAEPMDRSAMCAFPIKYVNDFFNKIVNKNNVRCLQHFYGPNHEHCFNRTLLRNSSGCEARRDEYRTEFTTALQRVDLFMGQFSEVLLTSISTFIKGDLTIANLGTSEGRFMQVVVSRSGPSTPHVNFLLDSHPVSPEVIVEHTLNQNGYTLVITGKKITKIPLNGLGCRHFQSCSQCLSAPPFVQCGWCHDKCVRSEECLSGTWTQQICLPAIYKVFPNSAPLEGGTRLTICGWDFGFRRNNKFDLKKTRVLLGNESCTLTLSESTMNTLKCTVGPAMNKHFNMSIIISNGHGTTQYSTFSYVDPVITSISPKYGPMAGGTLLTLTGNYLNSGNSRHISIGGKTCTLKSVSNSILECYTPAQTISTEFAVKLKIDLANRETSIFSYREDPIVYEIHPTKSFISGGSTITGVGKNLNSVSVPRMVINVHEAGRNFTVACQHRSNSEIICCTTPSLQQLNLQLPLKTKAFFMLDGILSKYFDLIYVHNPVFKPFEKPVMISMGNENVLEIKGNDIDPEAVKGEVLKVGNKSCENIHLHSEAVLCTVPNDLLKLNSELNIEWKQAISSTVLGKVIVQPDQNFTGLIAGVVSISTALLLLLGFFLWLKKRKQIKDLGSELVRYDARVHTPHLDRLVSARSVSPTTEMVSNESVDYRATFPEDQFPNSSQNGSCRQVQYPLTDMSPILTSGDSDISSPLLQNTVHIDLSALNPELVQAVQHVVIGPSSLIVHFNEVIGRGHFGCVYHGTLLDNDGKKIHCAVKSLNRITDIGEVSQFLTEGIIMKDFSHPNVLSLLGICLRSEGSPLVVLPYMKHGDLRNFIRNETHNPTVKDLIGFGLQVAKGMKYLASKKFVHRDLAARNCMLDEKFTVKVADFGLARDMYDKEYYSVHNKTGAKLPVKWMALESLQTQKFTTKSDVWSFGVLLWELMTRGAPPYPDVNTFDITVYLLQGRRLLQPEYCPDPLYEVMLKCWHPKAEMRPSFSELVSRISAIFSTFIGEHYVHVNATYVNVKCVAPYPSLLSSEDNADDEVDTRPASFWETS
Text: as §1
(§4) Kinases are expressed as either kinase domains or full length constructs fused to glutathione S-transferase (GST) or polyHistidine tagged fusion proteins in either E. colior Baculovirus-High Five expression systems. They are purified to near homogeneity by affinity chromatography essentially as previously described (Lehr et al., 1996; Gish et al., 1995). In some instances, kinases are co-expressed or mixed with purified or partially purified regulatory polypeptides prior to measurement of activity.
as §3, with “Kinase activity and inhibition are measured essentially by established protocols (Braunwalder et al., 1996). Briefly,” for “Briefly,”, “detector. The IC50 is determined by the concentration of compound that causes a 50% reduction in the amount of […] incorporated onto the substrate bound to the plate.” for “detector.”

Zap-70 = target: T3, Zap-70 (Homo sapiens, UniProt P43403); experiment: Kinase inhibition assay (33P transfer), Zap-70; conditions: read-out: Zap-1
T3 construct: Kinases are expressed as either kinase domains or full length constructs; made in house
T3 sequence (P43403 1-619): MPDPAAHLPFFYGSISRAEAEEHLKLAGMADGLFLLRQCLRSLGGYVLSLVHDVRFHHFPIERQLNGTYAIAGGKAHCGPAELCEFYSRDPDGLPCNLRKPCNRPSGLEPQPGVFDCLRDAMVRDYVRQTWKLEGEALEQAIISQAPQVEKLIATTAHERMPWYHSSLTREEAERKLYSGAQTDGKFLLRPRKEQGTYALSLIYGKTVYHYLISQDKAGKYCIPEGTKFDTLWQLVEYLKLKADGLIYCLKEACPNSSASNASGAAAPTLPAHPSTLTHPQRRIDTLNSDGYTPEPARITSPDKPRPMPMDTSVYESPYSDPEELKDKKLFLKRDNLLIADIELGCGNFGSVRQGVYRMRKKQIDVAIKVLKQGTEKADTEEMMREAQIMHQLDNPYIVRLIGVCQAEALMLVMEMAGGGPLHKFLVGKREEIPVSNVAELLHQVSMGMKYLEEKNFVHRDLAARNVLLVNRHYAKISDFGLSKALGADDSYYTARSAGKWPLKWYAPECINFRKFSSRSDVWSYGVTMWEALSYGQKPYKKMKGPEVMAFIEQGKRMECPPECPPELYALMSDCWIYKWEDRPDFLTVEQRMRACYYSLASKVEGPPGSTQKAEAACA
Text: as §1, §2, §3

AKT = target: T4, AKT (Homo sapiens, UniProt Q9Y243); experiment: Kinase inhibition assay (33P transfer), AKT; conditions: Table 2, kinase inhibition class; read-out: AKT3-1
T4 construct: Kinases are expressed as either kinase domains or full length constructs; made in house
T4 sequence (Q9Y243 whole entry, the tested form may be a part): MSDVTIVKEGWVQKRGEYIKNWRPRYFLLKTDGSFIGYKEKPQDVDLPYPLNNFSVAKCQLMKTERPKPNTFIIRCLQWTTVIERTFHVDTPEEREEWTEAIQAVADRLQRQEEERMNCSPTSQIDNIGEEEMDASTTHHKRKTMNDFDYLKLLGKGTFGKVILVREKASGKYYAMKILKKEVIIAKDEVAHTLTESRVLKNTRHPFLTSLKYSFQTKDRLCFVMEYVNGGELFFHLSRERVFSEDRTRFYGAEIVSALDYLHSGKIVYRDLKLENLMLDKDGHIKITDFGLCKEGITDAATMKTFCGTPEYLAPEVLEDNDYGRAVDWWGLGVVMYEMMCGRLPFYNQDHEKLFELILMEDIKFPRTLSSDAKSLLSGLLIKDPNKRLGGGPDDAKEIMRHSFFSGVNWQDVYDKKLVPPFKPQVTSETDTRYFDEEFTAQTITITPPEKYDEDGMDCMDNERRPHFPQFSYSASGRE
Text: as §1, §2, §3

EGFR = target: T5, EGFR (Homo sapiens, UniProt P00533); experiment: Kinase inhibition assay (33P transfer), EGFR; conditions: Table 2, kinase inhibition class; read-out: EGFR-1
T5 construct: Kinases are expressed as either kinase domains or full length constructs; made in house
T5 sequence (P00533 25-1210, species assumed): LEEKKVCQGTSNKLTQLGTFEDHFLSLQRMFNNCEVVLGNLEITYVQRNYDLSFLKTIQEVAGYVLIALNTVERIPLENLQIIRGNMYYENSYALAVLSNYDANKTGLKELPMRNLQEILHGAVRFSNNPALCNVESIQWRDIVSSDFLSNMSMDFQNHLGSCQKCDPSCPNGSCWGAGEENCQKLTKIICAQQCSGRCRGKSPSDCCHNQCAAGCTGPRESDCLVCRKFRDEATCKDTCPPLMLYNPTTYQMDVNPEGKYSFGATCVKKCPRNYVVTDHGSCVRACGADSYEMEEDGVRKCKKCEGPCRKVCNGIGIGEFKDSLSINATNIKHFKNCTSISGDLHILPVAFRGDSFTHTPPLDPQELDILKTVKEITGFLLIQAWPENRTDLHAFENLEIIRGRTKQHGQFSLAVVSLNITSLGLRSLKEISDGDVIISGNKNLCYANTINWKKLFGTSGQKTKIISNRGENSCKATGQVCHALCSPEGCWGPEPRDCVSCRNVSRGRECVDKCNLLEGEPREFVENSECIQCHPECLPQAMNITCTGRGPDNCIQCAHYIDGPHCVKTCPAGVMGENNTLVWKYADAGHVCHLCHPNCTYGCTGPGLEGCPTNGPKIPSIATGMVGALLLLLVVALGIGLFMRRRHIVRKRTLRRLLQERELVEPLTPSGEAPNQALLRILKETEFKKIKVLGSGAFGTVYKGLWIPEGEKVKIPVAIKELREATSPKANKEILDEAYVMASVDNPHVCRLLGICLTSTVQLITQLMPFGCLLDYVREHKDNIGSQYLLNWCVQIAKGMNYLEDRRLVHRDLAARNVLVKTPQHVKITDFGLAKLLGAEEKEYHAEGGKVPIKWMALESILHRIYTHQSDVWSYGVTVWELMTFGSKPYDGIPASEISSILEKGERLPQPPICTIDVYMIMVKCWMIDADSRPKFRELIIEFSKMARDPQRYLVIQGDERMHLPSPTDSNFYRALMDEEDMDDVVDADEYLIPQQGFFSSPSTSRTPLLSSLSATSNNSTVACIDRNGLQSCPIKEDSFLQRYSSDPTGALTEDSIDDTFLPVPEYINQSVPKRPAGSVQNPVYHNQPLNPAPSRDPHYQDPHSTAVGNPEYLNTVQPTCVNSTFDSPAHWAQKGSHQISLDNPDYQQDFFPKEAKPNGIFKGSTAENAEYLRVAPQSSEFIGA
Text: as §1, §4
as §3, with “Kinase activity and inhibition are measured essentially by established protocols (Braunwalder et al., 1996). Briefly,” for “Briefly,”, “detector. The IC50 is determined by the concentration of compound that causes a 50% reduction in the amount of […] incorporated onto the substrate bound to the plate.” for “detector.”

Itk = target: T6, Itk (Homo sapiens, UniProt Q08881); experiment: Kinase inhibition assay (33P transfer), Itk; conditions: read-out: Itk-1
T6 construct: Kinases are expressed as either kinase domains or full length constructs; made in house
T6 sequence (Q08881 1-620): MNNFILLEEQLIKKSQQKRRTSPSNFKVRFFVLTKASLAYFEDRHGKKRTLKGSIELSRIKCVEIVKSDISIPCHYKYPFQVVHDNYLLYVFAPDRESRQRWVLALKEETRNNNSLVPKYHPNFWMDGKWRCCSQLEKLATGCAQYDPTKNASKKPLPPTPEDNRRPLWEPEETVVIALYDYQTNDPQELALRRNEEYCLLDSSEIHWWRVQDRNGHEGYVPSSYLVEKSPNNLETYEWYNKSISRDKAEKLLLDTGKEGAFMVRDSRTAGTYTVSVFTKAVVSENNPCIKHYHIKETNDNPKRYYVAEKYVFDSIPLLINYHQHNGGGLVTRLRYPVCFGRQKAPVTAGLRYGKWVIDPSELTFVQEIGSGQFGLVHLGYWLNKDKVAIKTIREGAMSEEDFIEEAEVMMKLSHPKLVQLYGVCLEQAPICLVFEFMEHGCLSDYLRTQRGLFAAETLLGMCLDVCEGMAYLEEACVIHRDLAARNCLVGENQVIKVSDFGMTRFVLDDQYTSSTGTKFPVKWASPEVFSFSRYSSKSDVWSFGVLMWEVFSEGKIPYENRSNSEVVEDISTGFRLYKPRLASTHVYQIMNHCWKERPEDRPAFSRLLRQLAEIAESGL
Text: as §1, §4
as §3, with “Kinase activity and inhibition are measured essentially by established protocols (Braunwalder et al., 1996). Briefly,” for “Briefly,”, “detector. The IC50 is determined by the concentration of compound that causes a 50% reduction in the amount of […] incorporated onto the substrate bound to the plate.” for “detector.”

Lck = target: T7, Lck (Homo sapiens, UniProt P06239); experiment: Kinase inhibition assay (33P transfer), Lck; conditions: read-out: Lck-1
T7 construct: Kinases are expressed as either kinase domains or full length constructs; made in house
T7 sequence (P06239 whole entry, species assumed, the tested form may be a part): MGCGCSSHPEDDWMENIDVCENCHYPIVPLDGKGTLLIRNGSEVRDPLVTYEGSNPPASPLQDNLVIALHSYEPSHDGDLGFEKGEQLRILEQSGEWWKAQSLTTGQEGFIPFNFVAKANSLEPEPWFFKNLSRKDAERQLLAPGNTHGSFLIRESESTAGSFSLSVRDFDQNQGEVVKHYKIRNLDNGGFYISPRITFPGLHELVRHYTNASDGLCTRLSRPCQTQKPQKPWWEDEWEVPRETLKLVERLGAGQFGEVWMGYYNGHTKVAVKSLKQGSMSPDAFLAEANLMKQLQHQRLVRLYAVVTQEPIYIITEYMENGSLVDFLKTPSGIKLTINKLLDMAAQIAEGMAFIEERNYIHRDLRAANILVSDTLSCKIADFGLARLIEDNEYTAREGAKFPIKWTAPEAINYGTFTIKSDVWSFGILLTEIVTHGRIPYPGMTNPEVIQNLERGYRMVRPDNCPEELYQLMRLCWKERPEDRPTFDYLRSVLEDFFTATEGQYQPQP
Text: as §1, §2, §3

T1 sequence (P35968 20-1356, species assumed): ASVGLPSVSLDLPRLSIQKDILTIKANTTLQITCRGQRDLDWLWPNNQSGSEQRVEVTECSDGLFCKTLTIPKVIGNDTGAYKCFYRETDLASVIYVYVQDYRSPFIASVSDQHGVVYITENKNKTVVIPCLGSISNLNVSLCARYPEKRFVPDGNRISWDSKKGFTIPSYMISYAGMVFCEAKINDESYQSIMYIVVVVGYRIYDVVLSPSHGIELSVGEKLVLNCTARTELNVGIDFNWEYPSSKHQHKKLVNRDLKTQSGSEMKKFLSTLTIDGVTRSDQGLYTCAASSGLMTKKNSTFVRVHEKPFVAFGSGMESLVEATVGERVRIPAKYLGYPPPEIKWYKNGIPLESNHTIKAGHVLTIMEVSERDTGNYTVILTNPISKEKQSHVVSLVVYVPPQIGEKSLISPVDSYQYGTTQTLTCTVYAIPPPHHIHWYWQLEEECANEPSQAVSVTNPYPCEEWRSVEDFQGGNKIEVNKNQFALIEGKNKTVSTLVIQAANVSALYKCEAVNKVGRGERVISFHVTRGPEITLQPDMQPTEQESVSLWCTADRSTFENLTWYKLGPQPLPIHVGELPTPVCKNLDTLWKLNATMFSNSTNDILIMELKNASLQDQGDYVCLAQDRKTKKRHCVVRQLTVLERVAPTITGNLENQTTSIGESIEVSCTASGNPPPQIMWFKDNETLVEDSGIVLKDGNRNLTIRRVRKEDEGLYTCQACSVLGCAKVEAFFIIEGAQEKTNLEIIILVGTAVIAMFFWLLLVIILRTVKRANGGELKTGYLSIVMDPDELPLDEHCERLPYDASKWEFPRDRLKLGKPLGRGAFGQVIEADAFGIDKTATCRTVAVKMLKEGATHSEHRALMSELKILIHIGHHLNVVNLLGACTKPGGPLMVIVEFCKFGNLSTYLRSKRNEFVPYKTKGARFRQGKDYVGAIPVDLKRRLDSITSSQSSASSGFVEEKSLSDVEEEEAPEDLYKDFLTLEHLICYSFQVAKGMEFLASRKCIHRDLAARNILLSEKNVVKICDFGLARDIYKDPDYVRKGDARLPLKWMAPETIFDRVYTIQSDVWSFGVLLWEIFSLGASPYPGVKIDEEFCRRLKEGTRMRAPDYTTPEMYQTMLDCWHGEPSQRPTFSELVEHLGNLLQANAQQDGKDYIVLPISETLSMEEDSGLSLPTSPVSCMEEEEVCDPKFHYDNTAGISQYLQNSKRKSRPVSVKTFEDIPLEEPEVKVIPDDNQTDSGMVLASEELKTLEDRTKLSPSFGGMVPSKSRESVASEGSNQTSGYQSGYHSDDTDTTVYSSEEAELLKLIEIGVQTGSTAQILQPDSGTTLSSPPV

| IC50 (Kdr; Table 3) [µM] | IC50 (c-Met) [µM] | IC50 (Zap-70; Table 3) [µM] | IC50 (AKT) [µM] | IC50 (EGFR) [µM] | IC50 (Itk; Table 3) [µM] | IC50 (Lck; Table 3) [µM] | IC50 (Kdr) [µM] | IC50 (Zap-70) [µM] | IC50 (Itk) [µM] | IC50 (Lck) [µM] | Structure (SMILES) |
| --- | --- | --- | --- | --- | --- | --- | --- | --- | --- | --- | --- |
|  | > 14.7 |  | > 14.7 | > 14.7 |  |  | > 14.7 | > 14.7 | > 14.7 | > 14.7 | O=c1[nH]c2ccccc2n1-c1ncnc(Nc2ccccn2)n1 [Compound 487] |
|  | > 12.7 |  | > 12.7 | > 12.7 |  |  | > 12.7 | 6.75 to 9.85 | > 12.7 | > 12.7 | O=c1[nH]c2ccccc2n1-c1ncnc(Nc2cccc3cccnc23)n1 [Compound 688] |
|  | > 14.7 |  | > 14.7 | > 14.7 |  |  | 1.31 to 7.86 | > 14.7 | > 14.7 | > 14.7 | O=c1[nH]c2ccccc2n1-c1ncnc(Nc2ccncc2)n1 [Compound 488] |
|  | > 12.7 |  | > 12.7 | 9.85 to 12.7 |  |  | 1.13 to 6.75 | > 12.7 | 9.85 to 12.7 | 1.13 to 6.75 | O=c1[nH]c2ccccc2n1-c1ncnc(Nc2ccc3ncccc3c2)n1 [Compound 687] |

Continued, compound first:

| Structure (SMILES) | IC50 (Kdr; Table 3) [µM] | IC50 (c-Met) [µM] | IC50 (Zap-70; Table 3) [µM] | IC50 (AKT) [µM] | IC50 (EGFR) [µM] | IC50 (Itk; Table 3) [µM] | IC50 (Lck; Table 3) [µM] | IC50 (Kdr) [µM] | IC50 (Zap-70) [µM] | IC50 (Itk) [µM] | IC50 (Lck) [µM] |
| --- | --- | --- | --- | --- | --- | --- | --- | --- | --- | --- | --- |
| C#Cc1cccc(Nc2ncnc(-n3c(=O)[nH]c4ccccc43)n2)c1 [Compound 460] | 1.22 to 7.31 | 7.31 to 10.7 | > 13.7 | > 13.7 | 1.22 to 7.31 | > 13.7 | 10.7 to 13.7 |  |  |  |  |
| N#Cc1ccc(Nc2ncnc(-n3c(=O)[nH]c4ccccc43)n2)cc1 [Compound 485] |  | > 13.7 |  | > 13.7 | > 13.7 |  |  | 1.21 to 7.29 | > 13.7 | > 13.7 | > 13.7 |
| CC(C)(C)c1cc(Nc2ncnc(Nc3ccc(CO)cc3)n2)[nH]n1 [Compound 501] |  | < 1.18 |  | > 13.3 | 1.18 to 7.07 |  |  | 1.18 to 7.07 | > 13.3 | 1.18 to 7.07 | 1.18 to 7.07 |
| C=CCNc1ncccc1-c1ncnc(Nc2ccc(C(N)=O)cc2)n1 [Compound 1081] |  | > 13 |  | > 13 | > 13 |  |  | < 1.15 | > 13 | > 13 | 1.15 to 6.91 |
| CC(C)(C)c1cc(Nc2ncnc(Nc3cccc(C(N)=O)c3)n2)[nH]n1 [Compound 500] |  | 1.14 to 6.81 |  | > 12.8 | 1.14 to 6.81 |  |  | 1.14 to 6.81 | > 12.8 | 1.14 to 6.81 | 1.14 to 6.81 |
| COc1cc(Nc2ncnc(-c3ccc(N(C)C)nc3)n2)cc(OC)c1OC [Compound 449] | > 11.8 | > 11.8 | > 11.8 | > 11.8 | > 11.8 | > 11.8 | > 11.8 |  |  |  |  |
| COc1cc(Nc2ncnc(Nc3nc4ccccc4s3)n2)cc(OC)c1OC [Compound 469] |  | > 11 |  | > 11 | > 11 |  |  | 0.975 to 5.85 | > 11 | > 11 | > 11 |
| COc1cc(Nc2ncnc(-c3ccc(N4CCOCC4)nc3)n2)cc(OC)c1OC [Compound 434] | > 10.6 | > 10.6 | > 10.6 | > 10.6 | > 10.6 | > 10.6 | > 10.6 |  |  |  |  |
